Measured values published in patent US12370143B2, “Compound or salt thereof and lipid particles” (FUJIFILM Corporation, priority 2018, dated 2025).
Read-outs that look alike come from different tables or passages of the source.

Legend:
[1] = Particle size of nucleic acid lipid particles (Luc2-siRNA); type: physicochemical; settings: compound/DSPC/cholesterol/DMG-PEG2000 50/10/38.5/1.5
Procedure: By using the dispersion liquid of lipid particles as it was, the particle size of the lipid particles was measured using a zeta potential/particle size measurement system ELS-Z2 (Otsuka Electronics Co., Ltd.).
(§1) The compounds described in Table 2, L-α-distearoylphosphatidylcholine (trade name: COATSOME® MC-8080; NOF corporation), cholesterol (trade name: Choesterol HP; NIPPON FINE CHEMICAL CO., LTD.), and 1,2-dimyristoyl-rac-glycero-3-(methylpolyoxyethylene 2000) (hereinafter, called DMG-PEG2000) (trade name: SUNBRIGHT® GM-020; NOF corporation) were dissolved in ethanol at a molar ratio of 50/10/38.5/1.5 such that the total lipid concentration became 20 mmol/L, thereby obtaining an oil phase.
(§2) An aqueous nucleic acid solution obtained by dissolving 5 mg of Luc2-siRNA having the sequence described in Biomacromolecules (2013) 14, p. 3905 in 1 mL of sterile water was diluted with 10 mmol/L acetate buffer having a pH 4 such that the nucleic acid concentration became 19.7 μmol/L, thereby obtaining a water phase. Then, the water phase and the oil phase were mixed together by a micromixer (see JP5288254B) using a syringe pump such that the volume ratio of water phase:oil phase became 3:1 (final ratio of siRNA/lipid=339 (mol/mol)), and the mixed solution was diluted 2× with PBS, thereby obtaining a dispersion liquid of nucleic acid lipid particles. The dispersion liquid was dialyzed (Slide-A-Lyzer G2, MWCO: 10 kD, Thermo Fisher Scientific) using a phosphate buffered saline such that ethanol was removed, thereby obtaining nucleic acid lipid particles.
The particle size of the nucleic acid lipid particles was measured by the same method as that in <Preparation of lipid particles>.

[2] = Encapsulation rate of siRNA in nucleic acid lipid particles (Luc2-siRNA); type: physicochemical; settings: compound/DSPC/cholesterol/DMG-PEG2000 50/10/38.5/1.5
Procedure: as §1, §2
A 3 mol/L aqueous sodium acetate solution (30 μL) and 9 μL of glycogen were added to 60 μL of the lipid particles retaining nucleic acids, and then 1.5 mL of ethanol was added thereto such that only the nucleic acids were precipitated while the lipid was dissolved. Then, the supernatant was removed by centrifugation. After the precipitates were air-dried for 15 minutes or longer, water was added thereto such that the precipitates were redissolved, and the concentration thereof was measured using Nanodrop NF1000 (Thermo Fisher Scientific), thereby quantifying the total nucleic acid concentration.
The nucleic acid concentration was quantified using a Quant-iT RiboGreen RNA Assay Kit (Thermo Fisher Scientific) according to the protocol. First, a 20×TE buffer included in the above kit was diluted with water, thereby obtaining a 1×TE buffer. TE represents Tris/EDTA (ethylenediaminetetraacetic acid). In order to quantify only the nucleic acid in the outer water phase, the dispersion liquid of lipid particles retaining nucleic acids was diluted 10,000× with the 1×TE buffer.
The 10,000× diluted dispersion liquid of lipid particles (100 μL) was put in a 96-well plate, then 100 μL of a RiboGreen reagent (reagent included in the Quanti-iT Ribogreen RNA Assay Kit described above) diluted 2000× with the 1×TE buffer was added to a sample, and fluorescence (excitation wavelength: 485 nm, fluorescence wavelength: 535 nm) was measured using a plate reader Infinit EF200 (TECAN), thereby quantifying the nucleic acid concentration in the outer water phase.
By using the total nucleic acid concentration obtained through the above steps and the quantified nucleic acid concentration in the outer water phase, the nucleic acid encapsulation rate of the nucleic acid lipid particles was calculated according to the following Equation. Nucleic acid encapsulation rate (%)=(total nucleic acid concentration−nucleic acid concentration in outer water phase)/total nucleic acid concentration×100 The results are shown in Table 2.

[3] = test system: DMS273 cells constantly expressing Luc; assay: Target reporter protein (Luc) knockdown in cell, reporter protein assay; type: cell-based; settings: Homo sapiens, DMS-273
Procedure: The nucleic acid lipid particles prepared by the same method as that in <Preparation of nucleic acid lipid particles> by using the compounds described in Table 3 were evaluated by reporter assay by the following method.
By using pGL4.50 Luc2 (E1310 Promega), DMS273 cells (human small cell lung cancer) (European Collection of Authenticated Cell Cultures) constantly expressing Luc were prepared. RPMI (Gibco) (10% FBS (Gibco), 1% Penicillin-Streptomycin (Gibco), and 200 μg/mL Hygromycin (Wako)) was used as a culture medium. DMS273 cells (2.0×10^3) constantly expressing luciferase (Luc) were seeded in a 96-well plate and cultured in a 5% CO2 incubator for 24 hours, and then the medium was replaced. Then, 10 μL of each of the dispersion liquids of lipid particles diluted with PBS (Gibco) to yield a concentration of 1 to 1,000 nmol/L was added to the 96-well plate, and the final concentration was adjusted to 0.1 to 100 nmol/L (total amount of liquid: 110 μl). Thereafter, the cells were cultured in a 5% CO2 incubator for 24 hours, the medium was then replaced, and the cells were further cultured for 24 hours.
After the viable cell count was determined, the expression amount of Luc was quantified using a Steady Glo assay kit (Promega), and the knockdown efficiency was calculated according to the following equation. Then, the IC50 concentration at which the expression amount of Luc was knocked down to 50% was calculated.

[4] = Luc2-siRNA lipid particles using the compound, siRNA 0.1 to 100 nmol/L, concentration at which Luc expression is knocked down to 50%, read-out: IC50

| Particle size (nm) [1] [nm] | Nucleic acid encapsulation rate [2] [%] | IC50 [3, 4] [nM] | Structure (SMILES) | IC50 [3] [nM] |
| --- | --- | --- | --- | --- |
| 81.9 | 89 | > 100 | CCCCC/C=C\C/C=C\CCCCCCCCN(CCCCCCCC/C=C\C/C=C\CCCCC)C(=O)CN(C)CCN(C)C [Comparative Example 6, 2-((2-(dimethylamino)ethyl)(methyl)amino)-N,N-di((9Z,12Z)-octadeca-9,12-dien-1-yl)acetamide, reference compound] | – |
| 177.3 | 68 | 39 | CCCCCCC(CCCC)COC(=O)CCCC(CCCCCC)OC(=O)OCCN(CCO)CCN(CC)CC (stereo not drawn) [Example 101, 2-Butyloctyl 3-ethyl-12-hexyl-6-(2-hydroxyethyl)-10-oxo-9,11-dioxa-3,6-diazahexadecan-16-oate] | – |
| 75.2 | 75 | 31 | CCCCC/C=C\C/C=C\CCCCCCCCC(CCCCCCCC/C=C\C/C=C\CCCCC)OC(=O)OCCN(C)CCN(C)CCO [Example 27, (6Z,9Z,28Z,31Z)-heptatriaconta-6,9,28,31-tetraen-19-yl(2-((2-((2-hydroxyethyl)(methyl)amino)ethyl)(methyl)amino)ethyl)carbonate] | – |
| 90.5 | 73 | – | CCCCCCC(CCCC)COC(=O)CCCCCCC(CCCCCC)OC(=O)OCCN(CCN(CC)CC)C(C)C (stereo not drawn) [Example 92, 2-Butyloctyl 3-ethyl-12-hexyl-6-isopropyl-10-oxo-9,11-dioxa-3,6-diazanonadecan-19-oate] | – |
| 255 | 62 | – | CCCCCCC(CCCCCCCCC(=O)OCC(CCCCC)CCCCC)OC(=O)OCCN(CCO)CCN(CC)CC (stereo not drawn) [Example 128, 2-Pentylheptyl 3-ethyl-12-hexyl-6-(2-hydroxyethyl)-10-oxo-9,11-dioxa-3,6-diazahenicosan-21-oate] | – |
| 81.4 | 83 | – | CCCCC/C=C\C/C=C\CCCCCCCCN(CCCCCCCC/C=C\C/C=C\CCCCC)C(=O)OCCN(C)CCCN(C)C [Example 8, 2-((3-(Dimethylamino)propyl)(methyl)amino)ethyl di((9Z,12Z)-octadeca-9,12-dien-1-yl)carbamate] | – |
| 69.4 | 59 | – | CCCCC/C=C\C/C=C\CCCCCCCCC(CCCCCCCC/C=C\C/C=C\CCCCC)OC(=O)OCCN(CCC)CCN(CC)CC [Example 44, 2-((2-(Diethylamino)ethyl)(propyl)amino)ethyl((6Z,9Z,28Z,31Z)-heptatriaconta-6,9,28,31-tetraen-19-yl)carbonate] | – |
| 257 | 66 | – | CCCCCCC(CCCCCCCCC(=O)OCCC(CCCCC)CCCCC)OC(=O)OCCN(CCO)CCN(CC)CC (stereo not drawn) [Example 123, 3-Pentyloctyl 3-ethyl-12-hexyl-6-(2-hydroxyethyl)-10-oxo-9,11-dioxa-3,6-diazahenicosan-21-oate] | – |
| 65.5 | 81 | – | CCCCC/C=C\C/C=C\CCCCCCCCC(CCCCCCCC/C=C\C/C=C\CCCCC)OC(=O)OCCN(CCN(C)CC)C(C)(C)C [Example 79, 2-(tert-Butyl(2-(ethyl(methyl)amino)ethyl)amino)ethyl((6Z,9Z,28Z,31Z)-heptatriaconta-6,9,28,31-tetraen-19-yl)carbonate] | – |
| 219.0 | 76 | – | CCCCCC/C=C\COC(=O)OCCCCCCN(CCCCCCOC(=O)OC/C=C\CCCCCC)C(=O)OCCN(C)CCN(C)C [Example 14, 2-((2-(Dimethylamino)ethyl)(methyl)amino)ethyl bis(6-(((((Z)-non-2-en-1-yl)oxy)carbonyl)oxy)hexyl)carbamate] | – |
| 254.2 | 100 | – | CCCCCC/C=C/COC(=O)CCCCCCCN(CCCCCCCC(=O)OC/C=C/CCCCCC)C(=O)OCCN(C)CCN(C)C [Example 12, (E)-non-2-en-1-yl 2,5-dimethyl-10-(8-(((E)-non-2-en-1-yl)oxy)-8-oxooctyl)-9-oxo-8-oxa-2,5,10-triazaoctadecan-18-oate] | – |
| 65.8 | 79 | – | CCCCC/C=C\C/C=C\CCCCCCCCC(CCCCCCCC/C=C\C/C=C\CCCCC)OC(=O)OCCN(CCN(C)CCC)C(C)C [Example 63, (6Z, 9Z, 28Z, 31Z)-heptatriaconta-6,9,28,31-tetraen-19-yl(2-(isopropyl(2-(methyl(propyl)amino)ethyl)amino)ethyl)carbonate] | – |
| 77.9 | 79 | – | CCCCCCCCC1CC1CCCCCCCC(=O)OCCCCCCC(CCCCCCOC(=O)CCCCCCCC1CC1CCCCCCCC)OC(=O)OCCN(CC)CCN(CC)CC (stereo not drawn) [Example 57] | – |
| 77 | 78 | – | CCCCCCCCC(CCCCCC)COC(=O)CCCC(CCCCCC)OC(=O)OCCN(CC)CCN(CC)CC (stereo not drawn) [Example 82, 2-Hexyldecyl 3,6-diethyl-12-hexyl-10-oxo-9,11-dioxa-3,6-diazahexadecan-16-oate] | – |
| 113.4 | 90 | – | CCCCC/C=C\C/C=C\CCCCCCCCN(CCCCCCCCC)C(=O)OCCN(C)CCN(C)C [Example 16, 2-((2-(Dimethylamino)ethyl)(methyl)amino)ethyl nonyl((9Z,12Z)-octadeca-9,12-dien-1-yl)carbamate] | – |
| 246.6 | 86 | – | CCCCCCC(CCCC)COC(=O)CCCCCCCCC(CCCCCC)OC(=O)OCCN(CCO)CCN(CC)CC (stereo not drawn) [Example 85, 2-Butyloctyl 3-ethyl-12-hexyl-6-(2-hydroxyethyl)-10-oxo-9,11-dioxa-3,6-diazahenicosan-21-oate] | – |
| – | – | – | CCCCCCCC/C=C\CCCCCCCC(=O)OCCCCCCC(CCCCCCOC(=O)CCCCCCC/C=C\CCCCCCCC)OC(=O)OCCN(CC)CCN(C)C [Example 36, 7-(((2-((2-(dimethylamino)ethyl)(ethyl)amino)ethoxy)carbonyl)oxy)tridecane-1,13-diyldioleate] | 11 |
| 78.0 | 78 | – | CCCCC/C=C\C/C=C\CCCCCCCCC(CCCCCCCC/C=C\C/C=C\CCCCC)OC(=O)OCCN(C)CCN1CCOCC1 [Example 21, 2-(Methyl(2-morpholinoethyl)amino)ethyl((6Z,9Z,28Z,31Z)-heptatriaconta-6,9,28,31-tetraen-19-yl)carbonate] | – |
| – | – | 1 | CCCCCC(CCCCC)C(=O)OCCCCCCC(CCCCCCOC(=O)C(CCCCC)CCCCC)OC(=O)OCCN(CC)CCN(CC)CC [Example 60, 7-(((2-((2-(Diethylamino)ethyl)(ethyl)amino)ethoxy)carbonyl)oxy)tridecane-1,13-diylbis(2-pentylheptanoate)] | – |
